US12180197B2, “GLP-1R modulating compounds” (Gilead Sciences, Inc., priority 2021, dated 2024)

Each molecule was assayed against GLP-1R (Homo sapiens, UniProt P43220) (assay: GLP-1R Activation - cAMP Assay 1). Conditions: cAMP increase in CHO cells stably expressing GLP-1R; 30 minutes incubation; 10 point dose response.
Format: cell-based
Method: GLP-1R Activation—cAMP Assay 1
GLP-1R activation by a compound of the present disclosure was quantified by measuring cAMP increase in CHO cells stably expressing GLP-1R (MultiSpan product #C1267-1a). The cells were harvested and plated in growth medium (DMEM/F-12 (Corning product #10-090-CV) supplemented with 10% FBS (HyClone product #SH30071-03), penicillin/streptomycin (Corning product #30-002CI) and 10 µg/ml puromycin (Gibco product #A11138-03)) at 1,000 cells/well in a 384-well plate (Greiner product #781080). The cells were then incubated overnight at 37° C., 5% CO2. The next day, the medium was removed and the cells were washed with DPBS (Corning product #21-031-CM) before adding the assay medium (HBSS, Corning product #21-023-CV) with 20 mM Hepes (Gibco product #15630-080) and 0.1% BSA (Rockland Immunochemicals product #BSA-1000)). Following the medium change, the cells were incubated for 1 hour at 37° C., 5% CO2. The tested GLP-1 compound was added to the cells in a 10 point dose response followed by a 30 minutes incubation at 37° C., 5% CO2. cAMP concentration increase was then detected using Cisbio's cAMP Gs Dynamic Kit (product #62AM4PEC) according to the manufacturer's protocol. The response was plotted against the log of the agonist concentration and fitted to a sigmoidal equation to determine the EC50.

GLP-1R, sequence (P43220 24-463): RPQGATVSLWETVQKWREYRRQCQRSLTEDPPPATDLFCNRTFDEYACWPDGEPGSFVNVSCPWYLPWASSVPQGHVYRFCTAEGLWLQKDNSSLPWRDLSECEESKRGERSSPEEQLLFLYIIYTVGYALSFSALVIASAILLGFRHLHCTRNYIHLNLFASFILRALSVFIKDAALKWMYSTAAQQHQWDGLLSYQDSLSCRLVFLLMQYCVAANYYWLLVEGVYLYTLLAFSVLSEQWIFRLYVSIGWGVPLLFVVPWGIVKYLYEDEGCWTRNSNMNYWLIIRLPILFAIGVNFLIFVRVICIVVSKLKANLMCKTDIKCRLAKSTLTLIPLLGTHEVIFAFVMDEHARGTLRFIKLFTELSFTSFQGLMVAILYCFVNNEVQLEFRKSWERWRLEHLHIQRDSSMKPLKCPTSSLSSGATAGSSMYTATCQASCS

Structure (SMILES) | EC50 [nM]
COCCn1c(CN2CCC(c3cccc(OCc4ccc5ncccc5c4)n3)CC2)nc2ccc(C(=O)O)cc21 [Example 3, 1-(2-methoxyethyl)-2-((4-(6-(quinolin-6-ylmethoxy)pyridin-2-yl)piperidin-1-yl)methyl)-1H-benzo[d]imidazole-6-carboxylic acid] | 32.4
COCCn1c(CN2CCC(c3cccc(OCc4cccc(-c5noc(C)n5)c4)n3)CC2)nc2ccc(C(=O)O)cc21 [Example 10, 1-(2-methoxyethyl)-2-((4-(6-((3-(5-methyl-1,2,4-oxadiazol-3-yl)benzyl)oxy)pyridin-2-yl)piperidin-1-yl)methyl)-1H-benzo[d]imidazole-6-carboxylic acid] | 66.9
COCCn1c(CN2CCC(c3cccc(OCc4ccc(C#N)c5ccccc45)n3)CC2)nc2ccc(C(=O)O)cc21 [Example 25, 2-((4-(6-((4-cyanonaphthalen-1-yl)methoxy)pyridin-2-yl)piperidin-1-yl)methyl)-1-(2-methoxyethyl)-1H-benzo[d]imidazole-6-carboxylic acid] | 11.3
COCCn1c(CN2CCC(c3cccc(OCc4ccc5c(c4)OCO5)n3)CC2)nc2ccc(C(=O)O)cc21 [Example 7, 2-((4-(6-(benzo[d][1,3]dioxol-5-ylmethoxy)pyridin-2-yl)piperidin-1-yl)methyl)-1-(2-methoxyethyl)-1H-benzo[d]imidazole-6-carboxylic acid] | 4920
C#Cc1ccc(COc2cccc(C3CCN(Cc4nc5ccc(C(=O)O)cc5n4CCOC)CC3)n2)cc1 [Example 13, 2-((4-(6-((4-ethynylbenzyl)oxy)pyridin-2-yl)piperidin-1-yl)methyl)-1-(2-methoxyethyl)-1H-benzo[d]imidazole-6-carboxylic acid] | 22.2
COCCn1c(CN2CCC(c3cccc(OCc4ccc(C#N)c5cccnc45)n3)CC2)nc2ccc(C(=O)O)cc21 [Example 42, 2-((4-(6-((5-cyanoquinolin-8-yl)methoxy)pyridin-2-yl)piperidin-1-yl)methyl)-1-(2-methoxyethyl)-1H-benzo[d]imidazole-6-carboxylic acid] | 6.6
COCCn1c(CN2CCC(c3cccc(OCc4cc5cn[nH]c5cc4F)n3)CC2)nc2ccc(C(=O)O)cc21 [Example 39, 2-((4-(6-((6-fluoro-1H-indazol-5-yl)methoxy)pyridin-2-yl)piperidin-1-yl)methyl)-1-(2-methoxyethyl)-1H-benzo[d]imidazole-6-carboxylic acid] | > 10000
COCCn1c(CN2CCC(c3cccc(OCc4ccc(C(=O)N(C)C)cc4F)n3)CC2)nc2ccc(C(=O)O)cc21 [Example 11, 2-((4-(6-((4-(dimethylcarbamoyl)-2-fluorobenzyl)oxy)pyridin-2-yl)piperidin-1-yl)methyl)-1-(2-methoxyethyl)-1H-benzo[d]imidazole-6-carboxylic acid] | 9910
COCCn1c(CN2CCC(c3cccc(OCc4ccc(Cl)c5occc45)n3)CC2)nc2ccc(C(=O)O)cc21 [Example 31, 2-((4-(6-((7-chlorobenzofuran-4-yl)methoxy)pyridin-2-yl)piperidin-1-yl)methyl)-1-(2-methoxyethyl)-1H-benzo[d]imidazole-6-carboxylic acid] | 29
COCCn1c(CN2CCC(c3cccc(OCc4cccc5c4cnn5C)n3)CC2)nc2ccc(C(=O)O)cc21 [Example 8, 1-(2-methoxyethyl)-2-((4-(6-((1-methyl-1H-indazol-4-yl)methoxy)pyridin-2-yl)piperidin-1-yl)methyl)-1H-benzo[d]imidazole-6-carboxylic acid] | 1310
COCCn1c(CN2CCC(c3cccc(OCc4cccc5c4OC(F)(F)O5)n3)CC2)nc2ccc(C(=O)O)cc21 [Example 1, 2-((4-(6-((2,2-difluorobenzo[d][1,3]dioxol-4-yl)methoxy)pyridin-2-yl)piperidin-1-yl)methyl)-1-(2-methoxyethyl)-1H-benzo[d]imidazole-6-carboxylic acid] | 28.5
COCCn1c(CN2CCC(c3cccc(OCc4ccc(S(C)(=O)=O)cc4)n3)CC2)nc2ccc(C(=O)O)cc21 [Example 9, 1-(2-methoxyethyl)-2-((4-(6-((4-(methylsulfonyl)benzyl)oxy)pyridin-2-yl)piperidin-1-yl)methyl)-1H-benzo[d]imidazole-6-carboxylic acid] | 1190
COCCn1c(CN2CCC(c3cccc(OCc4ccc5c(c4)COC5=O)n3)CC2)nc2ccc(C(=O)O)cc21 [Example 43, 1-(2-Methoxyethyl)-2-((4-(6-((1-oxo-1,3-dihydroisobenzofuran-5-yl)methoxy)pyridin-2-yl)piperidin-1-yl)methyl)-1H-benzo[d]imidazole-6-carboxylic acid] | 345
COCCn1c(CN2CCC(c3cccc(OCc4c(F)cc(C(N)=O)cc4F)n3)CC2)nc2ccc(C(=O)O)cc21 [Example 37, 2-((4-(6-((4-carbamoyl-2,6-difluorobenzyl)oxy)pyridin-2-yl)piperidin-1-yl)methyl)-1-(2-methoxyethyl)-1H-benzo[d]imidazole-6-carboxylic acid] | 2200
COCCn1c(CN2CCC(c3cccc(OCc4ccc(C(C)(C)O)cc4)n3)CC2)nc2ccc(C(=O)O)cc21 [Example 29, 2-((4-(6-((4-(2-hydroxypropan-2-yl)benzyl)oxy)pyridin-2-yl)piperidin-1-yl)methyl)-1-(2-methoxyethyl)-1H-benzo[d]imidazole-6-carboxylic acid] | 1440
COCCn1c(CN2CCC(c3cccc(OCc4ccc(Cl)c5ccccc45)n3)CC2)nc2ccc(C(=O)O)cc21 [Example 4, 2-((4-(6-((4-chloronaphthalen-1-yl)methoxy)pyridin-2-yl)piperidin-1-yl)methyl)-1-(2-methoxyethyl)-1H-benzo[d]imidazole-6-carboxylic acid] | 39.9
COCCn1c(CN2CCC(c3cccc(OCc4ccc(C(O)(C(F)(F)F)C(F)(F)F)cc4)n3)CC2)nc2ccc(C(=O)O)cc21 [Example 2, 2-((4-(6-((4-(1,1,1,3,3,3-hexafluoro-2-hydroxypropan-2-yl)benzyl)oxy)pyridin-2-yl)piperidin-1-yl)methyl)-1-(2-methoxyethyl)-1H-benzo[d]imidazole-6-carboxylic acid] | 1260
COCCn1c(CN2CCC(c3cccc(OCc4cccc5occc45)n3)CC2)nc2ccc(C(=O)O)cc21 [Example 32, 2-((4-(6-(benzofuran-4-ylmethoxy)pyridin-2-yl)piperidin-1-yl)methyl)-1-(2-methoxyethyl)-1H-benzo[d]imidazole-6-carboxylic acid] | 261
COCCn1c(CN2CCC(c3cccc(OCc4ccc(-c5ccccc5)cc4)n3)CC2)nc2ccc(C(=O)O)cc21 [Example 12, 2-((4-(6-([1,1′-biphenyl]-4-ylmethoxy)pyridin-2-yl)piperidin-1-yl)methyl)-1-(2-methoxyethyl)-1H-benzo[d]imidazole-6-carboxylic acid] | 1070
COCCn1c(CN2CCC(c3cccc(OCc4ccc5cnccc5c4)n3)CC2)nc2ccc(C(=O)O)cc21 [Example 26, 2-[[4-[6-(6-isoquinolylmethoxy)-2-pyridyl]-1-piperidyl]methyl]-3-(2-methoxyethyl)benzimidazole-5-carboxylic acid] | 41.3
COCCn1c(CN2CCC(c3cccc(OCc4ccc5nonc5c4)n3)CC2)nc2ccc(C(=O)O)cc21 [Example 27, 2-((4-(6-(benzo[c][1,2,5]oxadiazol-5-ylmethoxy)pyridin-2-yl)piperidin-1-yl)methyl)-1-(2-methoxyethyl)-1H-benzo[d]imidazole-6-carboxylic acid] | 66.8
